Laboratory results reported in US20030228357A1, “Dry granulated formulations of azithromycin” (Pfizer Inc., priority 2002, published 2003).
“Also recorded” adds a separate entry of the source.

Tests used:
Assay type in all cases: physicochemical
[1] = Tablet hardness, Schleuniger hardness tablet tester; details: for Avg Tablet Hardness: Table 4C, low drug loading, diluent MCC
Experimental: (§1) All four formulations were compressed on the compaction simulator using either 0.344″×0.688″ oval tooling, or ½″ standard round concave (SRC) tooling. The tablets were tested for hardness (kP scale), using a Schleuniger hardness tablet tester (Dr. Schleuniger Pharmatron AG, Solothurn, Switzerland), and for friability (100 rotations/4 minutes) using a Vanderkamp Friabulator Tablet Tester (Vankel, Cary, N.C., US).

[2] = as above; details: for Avg Tab Hardness: Short blend
[3] = Density and Carr's Compressibility Index (flowability) of dry blends and dry granulations
Text: Carr's Compressibility Index was used to evaluate the flowability of the four dry granulations. Carr's Compressibility Index is a simple test to evaluate flowability by comparing both the initial and final (tapped) bulk volumes and the rate of packing down. A useful empirical guide to flow is given by Carr's compressibility index: Compressibility Index(%)=[(tapped density−initial density)/tapped density]×100 […] The procedure is described in Int. J. Pharm. Tech. & Prod. Mfr., 6(3) 10-16, 1985.

[4] = Tablet friability, Vanderkamp Friabulator (100 rotations/4 minutes)
Experimental: Friability is a standard test known to one skilled in the art. Friability is measured under standardized conditions by weighing out a certain number of tablets (generally 20 tablets or less), placing them in a rotating Plexiglas drum in which they are lifted during replicate revolutions by a radial lever, and then dropped approximately 8 inches. After replicate revolutions (typically 100 revolutions at 25 rpm), the tablets are reweighed and the percentage of formulation abraded or chipped is calculated. The friability of the tablets, of the present invention, is preferably in the range of about 0% to 3%, and values about 1%, or less, are considered acceptable for most drug and food tablet contexts. Friability which approaches 0% is particularly preferred.
as §1

[5] = Indices of tableting performance (Hiestand) of bulk azithromycin; details: forms N, M, G, A milled, F and J unmilled
Experimental: Indices of tableting performance, for several azithromycin forms, were assessed to identify any mechanical deficiencies or attributes that may affect tablet formulation for these azithromycin forms. This assessment was performed in accordance with the procedures described in “Indices of Tableting, Performance” […] and D. P. Smith, Powder Technology 38 [1984] pp. 145-159. Specifically, the Brittle Fracture Index, BFI, was calculated from the ratio of a material's regular tensile strength to its compromised tensile strength. Strain Index, SI, was determined from the dynamic indentation hardness test. Worst Case Bonding Index was determined by assessing the extent of particle bonding remaining after decompression assuming a very short compression dwell time and a plastic mechanism of particle separation during decompression. Tableting Indices were determined for bulk azithromycin lots of six different crystalline forms, specifically forms N, M, G, A, F and J. Forms N, M and G were milled with a Fitzmill (Model JT, The Fitzpatrick Co., Elmhurst, Ill.) using a 0.027'' screen and knives at high speed in an attempt to match the smaller particle size of milled Form A. Unmilled forms F and J were evaluated “as is” due to their relatively small particle sizes.

[6] = Slug (compact) hardness, Schleuniger hardness tablet tester
Text: A compaction simulator was used to compress the blends. The compaction simulator was designed as a single station tablet press in which the compression dwell time can be adjusted to simulate different types of tablet presses. All the formulations were slugged on the compaction simulator configured as the Kilian RX-67 press with a dwell time of 0.3145 seconds using […] round flat face tooling. The slugs were then comminuted using a Fitz mill with a 0.125″ screen with knives forward and run at slow speed. […] The slugs were tested for hardness (kP scale), using a Schleuniger hardness tablet tester (Dr. Schleuniger Pharmatron AG, Solothurn, Switzerland).

[7] = Tablet friability, Vanderkamp Friabulator (100 rotations/4 minutes); remark: listed apart in the source
[8] = Table 4D, high drug loading, diluent MCC, modified capsule shape
[9] = Table 4A, low drug loading (35.2 wt % azithromycin), diluent MCC
[10] = Table 4B, high drug loading (58.2 wt % azithromycin), diluent MCC
[11] = Table 7A, 55.76 wt % azithromycin, lactose anhydrous, corn starch, roller compaction 850 psi
[12] = Table 7A, 55.76 wt % azithromycin, lactose anhydrous, corn starch, roller compaction 850 psi, sesquihydrate
[13] = Table 3C, low drug loading (35.2 wt % azithromycin), DCP anhydrous, oval tablets, target weight 750 mg
[14] = Table 6B, Drug Loading High, Oval 0.344″ × 0.688″
[15] = Table 6B, Drug Loading Low, Oval 0.344″ × 0.688″
[16] = Table 3D, high drug loading (58.2 wt % azithromycin), DCP anhydrous, modified capsule shape tablets, target weight 450 mg
[17] = Table 6B, Drug Loading High, Modified Capsule 0.262″ × 0.531″
[18] = Table 6B, Drug Loading Low, Modified Capsule 0.262″ × 0.531″
[19] = Table 6B, Drug Loading Low, ½″ SRC
[20] = Table 3A, low drug loading: 35.2 wt % azithromycin, 54.8 wt % dicalcium phosphate anhydrous, long blend
[21] = Table 3B, high drug loading: 58.2 wt % azithromycin, 31.8 wt % dicalcium phosphate anhydrous, long blend
[22] = Table 6A, Drug Loading High (58.2 wt % azithromycin), DCP anhydrous
[23] = Table 6A, Drug Loading Low (35.2 wt % azithromycin), DCP anhydrous
[24] = Table 4C, low drug loading, diluent Lactose, Oval tooling
[25] = Table 4C, low drug loading, diluent Lactose, SRC (½″) tooling
[26] = Table 4D, high drug loading, diluent Lactose, modified capsule shape
[27] = Table 5B, Explotab, 250 mgA, Modified Capsule, Precompression No
[28] = Table 5B, Explotab, 500 mgA, Oval, Precompression 3.5 kN
[29] = Table 5B, Explotab, 500 mgA, Oval, Precompression No
[30] = Table 5B, PVP-XL, 250 mgA, Modified Capsule, Precompression No
[31] = Table 5B, PVP-XL, 600 mgA, Modified Oval, Precompression 1.5 kN
[32] = Table 5B, PVP-XL, 600 mgA, Modified Oval, Precompression No
[33] = 35.2 wt % azithromycin, dicalcium phosphate anhydrous diluent, Short blend method
[34] = 35.2 wt % azithromycin, dicalcium phosphate anhydrous diluent, Short blend method, slugged
[35] = Table 4A, low drug loading (35.2 wt % azithromycin), diluent Lactose
[36] = Table 4B, high drug loading (58.2 wt % azithromycin), diluent Lactose
[37] = Table 5A, 58.2 wt % azithromycin, dicalcium phosphate dihydrate, disintegrant Explotab
[38] = Table 5A, 58.2 wt % azithromycin, dicalcium phosphate dihydrate, disintegrant PVP-XL

SMILES: CC[C@H]1OC(=O)[C@H](C)[C@@H](O[C@H]2C[C@@](C)(OC)[C@@H](O)[C@H](C)O2)[C@H](C)[C@@H](O[C@@H]2O[C@H](C)C[C@H](N(C)C)[C@H]2O)[C@](C)(O)C[C@@H](C)CN(C)[C@H](C)[C@@H](O)[C@]1(C)O [Form G, azithromycin sesquihydrate]
- Avg Tablet Hardness ([1]; Oval tooling): 6.1 kP
- Avg Tablet Hardness ([1]; SRC (½″) tooling): 5.3 kP
- Avg Tablet Hardness [2, 8]: 5.8 kP
- Dry Granulation Carr's Index [3, 9]: 25%
- Dry Granulation Density As Is [3, 9]: 0.51 g/cc
- Dry Granulation Density Tapped [3, 9]: 0.68 g/cc
- Dry Granulation Carr's Index [3, 10]: 25%
- Dry Granulation Density As Is [3, 10]: 0.53 g/cc
- Dry Granulation Density Tapped [3, 10]: 0.71 g/cc
- Dry Granulation Density Tapped [3, 11]: 0.86 g/cc
- Dry Granulation Carr's Index [3, 12]: 22%
- Dry Granulation Density As Is [3, 12]: 0.67 g/cc
- Friability ([4]; Table 4C, low drug loading, diluent MCC, Oval tooling): 1.30%
- Friability ([4]; Table 4C, low drug loading, diluent MCC, SRC (½″) tooling): 0.78%
- Friability [4, 8]: 0.41%
- Strain Index (SI) ([5]; sesquihydrate): 0.0043
- Tensile Strength ([5]; sesquihydrate): 1.03 Mpa
- Worst Case Bonding Index (BIw) × 10^2 ([5]; sesquihydrate): 0.8
- Avg Slug Hardness [6, 9]: 13 kP
- Avg Slug Hardness [6, 10]: 9 kP

SMILES: CCC1OC(=O)C(C)C(O[C@H]2C[C@@](C)(OC)[C@@H](O)C(C)O2)C(C)[C@@H](OC2OC(C)CC(N(C)C)[C@H]2O)[C@@](C)(O)C[C@@H](C)CN(C)[C@H](C)[C@@H](O)[C@]1(C)O (some centres unmarked) [Form J, azithromycin monohydrate hemi-n-propanol solvate]
- Avg Hardness [1, 13]: 9.1 kP
- Avg Hardness [1, 14]: 10.2 kP
- Avg Hardness [1, 15]: 9.1 kP
- Avg Hardness [2, 16]: 6.5 kP
- Avg Hardness [2, 17]: 6.5 kP
- Avg Hardness [2, 18]: 6.9 kP
- Avg Hardness [2, 19]: 5.4 kP
- Granulation Carr's Index [3, 20]: 22%
- Granulation Density As Is [3, 20]: 0.87 g/cc
- Granulation Density Tapped [3, 20]: 1.12 g/cc
- Granulation Carr's Index [3, 21]: 28%
- Granulation Density As Is [3, 21]: 0.67 g/cc
- Granulation Density Tapped [3, 21]: 0.93 g/cc
- Dry Granulation Carr's Index [3, 22]: 28%
- Dry Granulation Density As Is [3, 22]: 0.67 g/cc
- Dry Granulation Density Tapped [3, 22]: 0.93 g/cc
- Dry Granulation Carr's Index [3, 23]: 22%
- Dry Granulation Density As Is [3, 23]: 0.87 g/cc
- Dry Granulation Density Tapped [3, 23]: 1.12 g/cc
- Friability [4, 13]: broke during friability testing; also recorded: Broken
- Friability [4, 17]: 0.38%
- Friability [4, 14]: 0.71%
- Friability [4, 18]: 0.52%
- Friability [4, 15]: Broken Tablets
- Friability [4, 19]: 1.46%
- Friability [7, 16]: 0.38%
- Brittle Fracture Index (BFI) [5]: 0.11
- Strain Index (SI) [5]: 0.0043
- Tensile Strength [5]: 0.69 Mpa
- Worst Case Bonding Index (BIw) × 10^2 [5]: 0.7
- Avg Slug Hardness [6, 20]: 14 kP
- Avg Slug Hardness [6, 21]: 11 kP
- Avg Slug Hardness [6, 22]: 11 kP
- Avg Slug Hardness [6, 23]: 14 kP

SMILES: CCC1OC(=O)C(C)C(O[C@H]2C[C@@](C)(OC)[C@@H](O)C(C)O2)C(C)[C@@H](OC2OC(C)CC(N(C)C)[C@H]2O)[C@@](C)(O)C[C@@H](C)CN(C)[C@H](C)[C@@H](O)[C@]1(C)O (some centres unmarked) [Form H, azithromycin monohydrate hemi-1,2 propanediol solvate]
- Avg Tablet Hardness [2, 24]: 7.0 kP
- Avg Tablet Hardness [2, 25]: 7.5 kP
- Friability [4, 24]: Broken
- Friability [4, 25]: 0.53%

SMILES: CCC1OC(=O)C(C)C(O[C@H]2C[C@@](C)(OC)[C@@H](O)C(C)O2)C(C)[C@@H](OC2OC(C)CC(N(C)C)[C@H]2O)[C@@](C)(O)C[C@@H](C)CN(C)[C@H](C)[C@@H](O)[C@]1(C)O (some centres unmarked) [Form M, azithromycin monohydrate hemi-isopropanol solvate]
- Avg Hardness [1, 13]: 8.4 kP
- Avg Tab Hardness ([2]; Table 2B Run 6, Oval tooling, compression force 19.4 kN): 8.4 kP
- Avg Tab Hardness ([2]; Table 2B Run 7, Oval tooling, compression force 14 kN): 5.1 kP
- Avg Hardness [2, 16]: 6.1 kP
- Avg Tablet Hardness [2, 26]: 5.8 kP
- Avg Hardness [2, 27]: 4.5 kP
- Avg Hardness [2, 28]: 7.4 kP
- Avg Hardness [2, 29]: 5.6 kP
- Avg Hardness [2, 30]: 4.9 kP
- Avg Hardness [2, 31]: 9.2 kP
- Avg Hardness [2, 32]: 4.2 kP
- Dry Blend Carr's Index [3, 33]: 36%
- Dry Blend density As Is [3, 33]: 0.68 g/cc
- Dry Blend density Tapped [3, 33]: 1.08 g/cc
- Granulation Carr's Index [3, 34]: 28%
- Granulation Density As Is [3, 34]: 0.82 g/cc
- Granulation Density Tapped [3, 34]: 1.14 g/cc
- Granulation Carr's Index [3, 20]: 28%
- Granulation Density As Is [3, 20]: 0.82 g/cc
- Granulation Density Tapped [3, 20]: 1.14 g/cc
- Dry Granulation Carr's Index [3, 35]: 30%
- Dry Granulation Density As Is [3, 35]: 0.55 g/cc
- Dry Granulation Density Tapped [3, 35]: 0.78 g/cc
- Dry Granulation Carr's Index [3, 36]: 29%
- Dry Granulation Density As Is [3, 36]: 0.53 g/cc
- Dry Granulation Density Tapped [3, 36]: 0.75 g/cc
- Dry Granulation Carr's Index [3, 37]: 26%
- Dry Granulation Density As Is [3, 37]: 0.67 g/cc
- Dry Granulation Density Tapped [3, 37]: 0.91 g/cc
- Dry Granulation Carr's Index [3, 38]: 25%
- Dry Granulation Density As Is [3, 38]: 0.63 g/cc
- Dry Granulation Density Tapped [3, 38]: 0.84 g/cc
- Dry Granulation Carr's Index [3, 11]: 24%
- Dry Granulation Density As Is [3, 11]: 0.62 g/cc
- Dry Granulation Density Tapped [3, 11]: 0.82 g/cc
- Friability ([4]; Table 2B Run 6, Short blend, Oval tooling, compression force 19.4 kN): capped
- Friability ([4]; Table 2B Run 7, Short blend, Oval tooling, compression force 14 kN): capped
- Friability [4, 26]: 0.28%
- Friability [4, 28]: 0.50%
- Friability [4, 29]: 2.71%
- Friability [4, 30]: 0.25%
- Friability [4, 32]: 6.34%
- Friability [7, 16]: 0.45%
- Friability [7, 27]: 0.33%
- Friability [7, 31]: 0.34%
- Brittle Fracture Index (BFI) [5]: 0.10
- Strain Index (SI) [5]: 0.0048
- Tensile Strength [5]: 0.79 Mpa
- Worst Case Bonding Index (BIw) × 10^2 [5]: 1.0
- Avg Slug Hardness [6, 33]: 10.9 kP
- Avg Slug Hardness [6, 20]: 11 kP
- Avg Slug Hardness [6, 35]: 13 kP
- Avg Slug Hardness [6, 36]: 11 kP
- Avg Slug Hardness [6, 37]: 12 kP
- Avg Slug Hardness [6, 38]: 13 kP
